Results published in patent publication US20110003760A1, “ABNORMAL PROTEIN REMOVING METHOD” (priority 2005, published 2011).

Key:
[1] = system: carbonylated protein in three-dimensional human skin model TESTSKIN (LSE-high); test: Carbonylated protein in three-dimensional human skin model, Western blotting (DNPH); type: cell-based; details: for Relative photographic density (carbonylated protein): untreated without UV = 100%; for effect on accumulation of carbonylated protein: retinoic acid and retinol at 3 and 10 μM
Procedure: (§1) Three-dimensional human skin models are widely used in safety evaluation and effectiveness evaluation as a simulated model of human skin. In this test, TESTSKIN (LSE-high) (Toyobo Co., Ltd.) was used as a three-dimensional human skin model.
(§2) A culture medium was added to the outer well of TESTSKIN (LSE-high) and cultured for 24 hours. UVA and UVB were irradiated at 10 J/cm^2 and 100 mJ/cm^2, respectively. UVB was irradiated for 2 minutes at a UV intensity of […] using FL20S-E-30/DMR (Clinical Supply Co., Ltd.) to achieve a total irradiation dose of 100 mJ/cm^2. UV intensity was measured using a UV MONITOR MS-211-I (Eiko Instruments Co., Ltd.).
As a control group, three-dimensional human skin models not irradiated with UVA or UVB were also prepared.
(§3) Thereafter, the culture solution was changed and each agent was added by 100 μl onto the tissues in the assay ring, after which the medium was cultured for 36 hours. Thereafter, the tissues were collected and a tissue extraction solution (50 mM Tris-HCl (pH 7.5), 0.5% (Octylphenoxy) polyethoxyethanol (Sigma-Aldrich Corp.)) was added, and then the mixture was homogenized using a Teflon (registered trademark) homogenizer. The homogenized mixture was centrifuged for 30 minutes at 10,000×G to remove tissue fragments, and then dialyzed overnight in distilled water at 4° C. Thereafter, the dialyzed mixture was freeze-dried to remove water. A tissue extraction solution was added to obtain a ×20 concentrate, and this concentrate was used as a three-dimensional skin model extract sample.
In this test, 2,4-dinitrophenyl hydrazine (DNPH), which specifically bonds with the carbonyl group in the protein produced by oxidation damage, was used to label carbonylated protein, and then detection was performed using an anti-DNPH antibody that specifically bonds with DNPH.
The specific method is explained below. DNPH protein was detected from the protein in the sample by means of Western blotting using a DNPH kit (Oxi Blot™ Protein Oxidation Detection Kit; Chemicon International Inc.). Detection was performed by exposing PVDF membranes to light using a […] (ECL PLUS; Amarsham PLC), and an automatic developer (FPM100; FUJIFILM Medical Co., Ltd.) was used to transfer images. A densitometer (Molecular Dynamics Inc.) was then used to analyze the images to quantify the photographic density. For your information, protein in the sample was reduced and measured as deemed appropriate. In this case, 2-mercaptoethanol was used as a reducing agent and the mixture was heated for 5 minutes at 100° C. to sever the disulfide bond.
Based on the above results, it is clear that Bletilla striata extract and silybin suppress accumulation of carbonylated protein in a three-dimensional skin model in a manner dependent on the concentration. Accordingly, whether or not a combined use of Bletilla striata extract and silybin would synergistically suppress accumulation of carbonylated protein was evaluated. Also, whether or not a combined use of silybin and soybean saponin, a substance known to have an action to suppress accumulation of carbonylated protein, would synergistically suppress accumulation of carbonylated protein was evaluated. As a result, regardless of whether or not UV light was irradiated using silybin (3 μM) in combination with Bletilla striata extract (0.1%; final extract concentration of 0.001%), or using silybin (3 μM) in combination with soybean saponin (0.0005%), suppressed the accumulation of carbonylated protein synergistically compared to when a sample was treated with silybin (3 μM), Bletilla striata extract (0.1%; final extract concentration of 0.001%) or soybean saponin (0.0005%) alone, as far as accumulation of carbonylated protein in a three-dimensional skin model was concerned (FIG. 7 and Table 7; results of non-reduced protein).

[2] = system: trypsin-like proteasome activity in three-dimensional human skin model; test: Proteasome activity in three-dimensional human skin model; type: cell-based; details: for proteasome activity compared to the sample not given any treatment under UV irradiation (75%) / proteasome activity compared to the sample not given any treatment: FIG. 11; for proteasome activity compared to the sample not given any treatment: without UV irradiation; for effect on proteasome activity: retinoic acid and retinol at 3 and 10 μM
Procedure: as §1, §2, §3
Proteasome activity was measured using a known method (Hayashi, et al., Mechanisms of Aging and Development, Vol. 102, pp. 55-66, 1998) based on cell extract samples.
The specific method is as follows. For the matrix to measure trypsin-like proteasome activity, t-butyloxycarbonyl-L-leucyl-L-arginyl-L-arginyl-L-4-methyl-coumaryl-7-amide (Peptide Institute, Inc.) was used. A cell extract sample containing protein by an equivalent of 10 μg was added to 10.5 μl of a 100 μM matrix solution prepared with 100 mM Tris-HCl (pH 8.0), after which a cell extraction solution was added to a total volume of 50 μl. The obtained solution was treated for 30 minutes at 37° C., after which the fluorescence intensity of the separated 7-amine-4-methyl coumarin was measured at an excitation wavelength (Ex) of 380 nm and absorption waveform (Em) of 440 nm. The result was obtained for each sample type treated with each agent, as an “average ±standard error” calculated from the measured values of three samples.
Based on the above results, it is clear that Bletilla striata extract and silybin promote proteasome activity in a three-dimensional skin model in a manner dependent on the concentration. Accordingly, whether or not a combined use of Bletilla striata extract and silybin would synergistically promote proteasome activity was evaluated. Also, whether or not a combined use of silybin and soybean saponin, a substance known to have an action to promote proteasome activity, would synergistically promote proteasome activity was evaluated. As a result, regardless of whether or not UV light was irradiated, using silybin (3 μM) in combination with Bletilla striata extract (0.1%; final extract concentration of 0.001%), or using silybin (3 μM) in combination with soybean saponin (0.0005%), promoted proteasome activity synergistically compared to when a sample was treated with silybin (3 μM), Bletilla striata extract (0.1%; final extract concentration of 0.001%) or soybean saponin (0.0005%) alone, as far as promotion of proteasome activity in a three-dimensional skin model was concerned (FIG. 12).

## CC1=C(/C=C/C(C)=C/C=C/C(C)=C/C(=O)O)C(C)(C)CCC1 [Retinoic acid, all-trans-retinoic acid]
[1]; non-reduced protein, 3 μM
  amount of carbonylated protein compared to the sample not given any treatment under UV irradiation: little change
[1]; non-reduced protein, treatment concentration 3 μM, UV (+)
  Relative photographic density (carbonylated protein): 305%
[1]; non-reduced protein, treatment concentration 3 μM, UV (−)
  Relative photographic density (carbonylated protein): 110%
[1]; non-reduced protein, treatment concentration 3 μM, UV (−), listed as retinoic acid
  Relative photographic density (carbonylated protein): little change
[1]; reduced protein, 3 μM
  amount of carbonylated protein compared to the sample not given any treatment under UV irradiation: little change
[1]; reduced protein, treatment concentration 3 μM, UV (+)
  Relative photographic density (carbonylated protein): 315%
[1]; reduced protein, treatment concentration 3 μM, UV (−)
  Relative photographic density (carbonylated protein): 105%
[1]; reduced protein, treatment concentration 3 μM, UV (−), listed as retinoic acid
  Relative photographic density (carbonylated protein): little change
[1]
  effect on accumulation of carbonylated protein: no effect
[2]; 3 μM
  proteasome activity compared to the sample not given any treatment under UV irradiation (75%): little change
  proteasome activity compared to the sample not given any treatment: little change
[2]
  effect on proteasome activity: no effect

## CC1=C(/C=C/C(C)=C/C=C/C(C)=C/CO)C(C)(C)CCC1 [Retinol, all-trans-retinol]
[1]; non-reduced protein, 10 μM
  amount of carbonylated protein compared to the sample not given any treatment under UV irradiation: little change
[1]; non-reduced protein, treatment concentration 10 μM, UV (+)
  Relative photographic density (carbonylated protein): 315%
[1]; non-reduced protein, treatment concentration 10 μM, UV (−)
  Relative photographic density (carbonylated protein): 115%
[1]; non-reduced protein, treatment concentration 10 μM, UV (−), listed as retinol
  Relative photographic density (carbonylated protein): little change
[1]; reduced protein, 10 μM
  amount of carbonylated protein compared to the sample not given any treatment under UV irradiation: little change
[1]; reduced protein, treatment concentration 10 μM, UV (+)
  Relative photographic density (carbonylated protein): 330%
[1]; reduced protein, treatment concentration 10 μM, UV (−)
  Relative photographic density (carbonylated protein): 110%
[1]; reduced protein, treatment concentration 10 μM, UV (−), listed as retinol
  Relative photographic density (carbonylated protein): little change
[1]
  effect on accumulation of carbonylated protein: no effect
[2]; 10 μM
  proteasome activity compared to the sample not given any treatment under UV irradiation (75%): little change
  proteasome activity compared to the sample not given any treatment: little change
[2]
  effect on proteasome activity: no effect
